According to patent US20090298045A1, “Method For Selectively Expanding, Selecting And Enriching Stem/Progenitor Cell Populations” (Tel Hashomer-Medical Research, Infrastructure And Services …, priority 2004, published 2009):

Legend:
Format in all cases: cell-based, human
[1] = system: UCB-derived CD133+ cells; test: Ex vivo expansion of purified UCB-derived CD133+ cells with cytokines, CD133+ cell fraction by flow cytometry; conditions: for CD133+ cell population with cytostatic agent: colchicine 2.5 ng/ml, two weeks expansion; for Fold enrichment (CD133+): with vs without colchicine 2.5 ng/ml, two weeks
Protocol: Cells were obtained from human umbilical cord blood (UCB) after normal fall-term delivery. The cells were layered on a Ficoll-Hypaque gradient (1.077 g/ml Sigma), and centrifuged at 500 g for 30 minutes. The mononuclear cells in the interface layer were collected and washed three times in phosphate-buffered saline (PBS; Biological Industries) containing 0.5% Bovine serum albumin (BSA). To purify the CD133^+ cells, the mononuclear cell fraction was subjected to two cycles of immunomagnetic bead separation using a MiniMACS CD133 progenitor cell isolation kit (Miltenyi Biotec,), according to the manufacturer's recommendations.
(§1) Purified CD133^+ cells were cultured in 24-well culture plate at densities of 2-4×10^4 cells in alpha-MEM medium (Biological Industries) supplemented with 10% fetal calf serum (Biological Industries) and the following human recombinant cytokines (Pepro Tech, Inc., Rocky Hill, N.J., USA): Trombopoietin, interleukin-6, FLT-3 ligand and Stem Cell Factor, at final concentration of 50 ng/ml each as well as interleukin-3 and IL2 at 20 ng/ml, in the absence or presence of colchicine in a concentration scale as indicated. Cells were expanded at 37° C. in a humidified atmosphere of 5% CO2 in air.
(§2) Cultures were depopulated twice a week and a fresh medium in which growth factors and colchicine were added. At various time points, cells were counted after staining with trypan blue and harvested cells were used for enumeration of CD133^+ cells following immunophenotype analysis.
(§3) The cells were washed with a PBS solution containing 1% BSA and stained (at 4° C. for 30 min) with fluorescein isothiocyanate (FITC)- or phycoerythrin (PE)-conjugated antibodies that are specifically described in the next sections. Cells were washed in the abovementioned buffer and analyzed by flow cytometer (Becman coulter). Cells were passed at a rate of up to 1000 cells/second, using a 488-nm argon laser beam as the light source for excitation.
(§4) The percentage of CD133^+ cell fraction from total cells was determined by flow cytometry using. PE-anti-CD133^+ antibody (Miltenyi Biotec). Fold enrichment was calculated by dividing the CD133^+ cell percentage of culture growing with cytostatic agent by the CD133^+ cell percentage of culture growing without cytostatic agent. Since cultures were depopulated twice a week, the culture volume was calculated by multiplying the actual volume with the number of passages. Fold expansion was calculated by dividing the CD133^+ cell content of the culture by the initial number of cultured CD133^+ cells.

[2] = system: CD34+CD38- early stem cell sub-population of UCB derived CD133+ cells; test: Determination of CD34+CD38- early stem cell subset in cultured CD133+ cells by flow cytometry; conditions: for CD34+38- cell population with cytostatic agent: colchicine 2.5 ng/ml, one week expansion; for Fold enrichment (CD34+38-): with vs without colchicine 2.5 ng/ml, one week
Protocol: as §1, §3
The percentages of early stem cell subsets were determined from the purified fresh and/or cultured CD133^+ cell fraction. Cells were dually stained with PE anti-CD34 and FITC anti-CD38 (DAKO) for determination of CD34^+ CD38^− cells by flow cytometry analyses with PE anti-CD133^+ antibody (Miltenyi Biotec).

[3] = system: Fresh, enriched CD133+ stem cells; test: Cell counts and fold expansion of CD133+ stem cells after ex-vivo expansion; conditions: colchicine 2.5 ng/ml; for Fold expansion of CD133+ cells: 2 weeks vs T0
Protocol: as §1, §2, §4

[4] = Exp. 1, T0 0.4 × 10^3 CD133+ cells
[5] = Exp. 2, T0 0.2 × 10^3 CD133+ cells
[6] = Exp. 3, T0 0.4 × 10^3 CD133+ cells

In the case of COc1cc2c(c(OC)c1OC)-c1ccc(OC)c(=O)cc1[C@@H](NC(C)=O)CC2 [colchicine], the “optimal concentration in which the highest CD133+ cells enrichment was achieved” value ([1]; 2 weeks expansion, three independent experiments, FIG. 3) is reported as 2.5 ng/mL, the “CD133+ cell population with cytostatic agent” value (“CD133+ cell population” below) ([1]; Donor # 1 (first line)) is reported as 4% and the “Fold enrichment (CD133+)” value ([1]; Donor # 1 (first line)) is reported as 4. The “CD133+ cell population” value ([1]; Donor # 1) was 7%, the “Fold enrichment (CD133+)” value ([1]; Donor # 1) was 7 and the “CD133+ cell population” value ([1]; Donor # 3) was 15%. For the same compound, the “Fold enrichment (CD133+)” value ([1]; Donor # 3) was 2.5, the “CD133+ cell population” value ([1]; Mean ± SD of three donors) was 8.7 ± 5.7% and the “Fold enrichment (CD133+)” value ([1]; Mean ± SD of three donors) was 4.5 ± 2.3. The “enrichment of UCB-derived CD133+ cell-fraction (in words)” value ([1]; concentration scale, 2 weeks expansion, FIG. 3) was “dose-dependent enrichment”, the “percentage of CD34+CD38- sub-population, treated vs un-treated cultures (in words)” value ([2]; 1 week in culture) was “increase in the percentage” and the “CD34+38- cell population with cytostatic agent” value ([2]; Donor # 3) was 15%. For the same compound, the “Fold enrichment (CD34+38-)” value ([2]; Donor # 3) was 1.7, the “CD34+38- cell population with cytostatic agent” value ([2]; Donor # 4) was 5% and the “Fold enrichment (CD34+38-)” value ([2]; Donor # 4) was 10. The “CD133+ cells, T(2 weeks), with colchicine” value (shortened to “CD133+ cells, T(2 weeks)”) [3, 4] was 5.4 × 10^3, the “Total cells, T(2 weeks), with colchicine” value [3, 4] was 135 × 10^3 and the “Fold expansion of CD133+ cells” value ([3]; Exp. 1) was “(X 13.5)”. For the same compound, the “CD133+ cells, T(2 weeks)” value [3, 5] was 4.7 × 10^3, the “Total cells, T(2 weeks), with colchicine” value [3, 5] was 68 × 10^3 and the “Fold expansion of CD133+ cells” value ([3]; Exp. 2) was “(X 23.5)”. For the same compound, the “CD133+ cells, T(2 weeks)” value [3, 6] was 4.1 × 10^3, the “Total cells, T(2 weeks), with colchicine” value [3, 6] was 27 × 10^3 and the “Fold expansion of CD133+ cells” value ([3]; Exp. 3) was “(X 10.2)”.
